Drawing on patent US6403617B1, “Diaminopyridine-containing thiourea inhibitors of herpes viruses” (American Home Products Corp., priority 1998, dated 2002), this text covers IC50 and inhibition for four molecules.

The subject of one test is HSV-1. Nature of the test: HSV Antiviral (ELISA) Assay. Conditions: Human alphaherpesvirus 1; Vero cells, HSV-1, about 24 hours post-infection; read-out: IC50 (ug/ml) HSV. Type of test: cell-based, herpes simplex virus type 1. On the procedure: Vero cells (ATCC #CCL-81) are plated on 96-well tissue cultugre plates at 3.5×10^4 cells per 100 μl tissue culture DMEM (Dulbecco's modified Eagle media) supplemented with 2% fetal bovine serum (FBS) in each well. After overnight incubation @ 37° C. (in 5% CO2) and 30 minutes prior to infection with HSV-1 (multiplicity of infection equal to 0.006), cells are either untreated, or treated with test compound (multiple concentrations) or reference standard drug control. After approximately 24 hours post-infection incubation @ 37° C. (in 5% CO2), cells are fixed for ELISA assay. The primary antibody is murine anti-HSV glycoprotein D monoclonal primary antibody and the secondary antibody is goat anti-mouse IgG linked to β-galactosidase. Thus the extent of viral replication is determined by assessing β-galactosidase activity by quantifying the generation of the 4-methyl umbelliferone fluorescent cleavage product after addition of the methyl umbelliferyl-β-D-galactoside (Sigma #M1633) substrate on a microfluorimeter (365 nm for excitation and 450 nm for emission). Antiviral activity (IC50) of the test compound is determined by comparing the flourescence obtained in absence of compound to that obtained in the presence of compound.

The test system of a further test is HCMV wild-type. Nature of the test: HCMV yield assay. Type of test: cell-based, Human Cytomegalovirus. The conditions noted are these: Human betaherpesvirus 5, Fibroblast; human foreskin fibroblasts; reduction of virus yield by 50%; read-out: IC50 (ug/ml) HCMV. On the procedure:
Yield assay. Monolayer cultures of human foreskin fibroblasts are infected with HCMV wild-type, typically at a multiplicity of infection equal to 0.2, in the presence of inhibitor compound (varying concentrations). At three days post-infection, total virus produced in these cultures (i.e. virus yield) is assessed by harvesting and titering the virus in 12-well plates of cultured human foreskin fibroblasts (done in the absence of inhibitor). Plaques are quantified at 2 weeks post-infection. An inhibitor of HCMV is identified by the reduction in titer of virus yield in the presence, compared to the titer in the absence of compound. In this assay, the relative anti-HCMV activity of an inhibitor is typically determined by calculating the IC50 or IC90 value, that is, the amount of compound required to reduce the virus yield by 50% or 90%, respectively. Table I describes IC50 data for compounds tested against HCMV.

The next test has as its system VZV strain Ellen. Nature of the test: VZV Antiviral (ELISA) Assay. Format: cell-based, varicella-zoster virus. Conditions: Human alphaherpesvirus 3, 72 h, human foreskin fibroblast cells, three days; for inhibition at 10 µg/mL: read-out: % inhibition 10 ug/ml VZV, 10 ug/ml; for IC50: read-out: IC50 (ug/ml) VZV. The method, then:
For the generation of stock VZV to be used in the assay, VZV strain Ellen (ATCC #VR-1367) is used to infect human foreskin fibroblast (HFF) cells at low multiplicity (less than 0.1) and incubated overnight at 37° C. in 5% CO2. After the overnight incubation, the mixture of uninfected and VZV-infected HFF infected cells are then harvested and added to each well of 96-well plates (3.5×10^4 cells in 100 μl DMEM supplemented with 2% FBS) which contain test compound or the reference standard drug control (in 100 μl DMEM supplemented with 2% FBS per well). These cells are incubated for three days at 37° C. in 5% CO2, then fixed for ELISA assay. The primary antibody is murine anti-VZV glycoprotein II monoclonal antibody (Applied Biosystems, Inc. #13-145-100) and the secondary antibody is goat anti-mouse IgG linked to β-galactosidase. Thus the extent of viral replication is determined by assessing β-galactosidase activity by quantifying the generation of the 4-methyl umbelliferone fluorescent cleavage product after addition of the methyl umbelliferyl-β-D-galactoside (Sigma #M1633) substrate on a microfluorimeter (365 nm for excitation and 450 nm for emission). Antiviral activity (IC50) of the test compound is determined by comparing the flourescence obtained in absence of compound to that obtained in the presence of compound.
(In general: An ELISA detects its analyte on a solid surface through an enzyme-linked reagent.)

The structures appear in SMILES notation. ≈ marks a conversion by molar mass, not a printed value.

For `O=C(Nc1ccc(NC(=S)Nc2cc(Cl)cc(Cl)c2)cn1)c1csnn1` [Example 515, [1,2,3]Thiadiazole-4-carboxylic acid {5-[3-(3,5-dichloro-phenyl)-thioureido]-pyridin-2-yl}-amide], the IC50 in the test with HSV-1, in the test with HCMV wild-type and in the test on VZV strain Ellen was more than 10 µg/mL each time. Moreover, the inhibition at 10 µg/mL with VZV strain Ellen came to 30%.

Regarding `COc1cc(OC)c(NC(=S)Nc2ccc(NC(=O)c3csnn3)cn2)cc1Cl` [Example 514, [1,2,3]Thiadiazole-4-carboxylic acid {6-[3-(5-chloro-2,4-dimethoxy-phenyl)-thioureido]-pyridin-3-yl}-amide], the IC50 in the test with HSV-1 was 4 µg/mL (≈ 8.87 µM); in the test with HCMV wild-type, 1.2 µg/mL (≈ 2.66 µM); in the test with VZV strain Ellen it was more than 10 µg/mL. Moreover, in the test on VZV strain Ellen, the inhibition at 10 µg/mL stood at 62%.

In the case of `COc1cc(OC)c(NC(=S)Nc2ccc(NC(=O)c3ccco3)cn2)cc1Cl` [Example 512, Furan-2-carboxylic acid {6-[3-(5-chloro-2,4-dimethoxy-phenyl)-thioureido]-pyridin-3-yl}-amide], the IC50 with HSV-1 was 0.5 µg/mL (≈ 1.16 µM); with HCMV wild-type, 0.7 µg/mL (≈ 1.62 µM); in the test on VZV strain Ellen it was 4 µg/mL (≈ 9.24 µM). Further, the inhibition at 10 µg/mL in the test with VZV strain Ellen stood at 70%.

With `COc1cc(OC)c(NC(=S)Nc2ccc(NC(=O)c3ccccc3C)nc2)cc1Cl` [Example 283, N-[5-[[[(5-Chloro-2,4-dimethoxyphenyl)amino]thioxomethyl]amino]-2-pyridinyl]-2-methylbenzamide], the figures for the IC50 in the test with HSV-1, with HCMV wild-type and in the test with VZV strain Ellen were 0.6 µg/mL (≈ 1.31 µM), 7 µg/mL (≈ 15.3 µM) and more than 10 µg/mL, respectively. In the test on VZV strain Ellen, the inhibition at 10 µg/mL was 17%.
